Source: ChEMBL document CHEMBL1201862, “PubChem BioAssay data set” (2004)
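All cell lines were grown in 96-well plates and treated with compound for 48 hours. GI50 = concentration required for 50% inhibition of growth.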 Calls of active or inactive are those of the source. Cut-off read from the data, not from the text of the source: active = GI50 up to about 1.1 µM and inactive = higher.

Assays:
Test in all cases: inhibition of tumour cell growth, NCI panel, 48 h
Hs-578T = system: Hs-578T
DMS-114 = system: DMS-114
KM-20L2 = system: KM-20L2
LXFL 529 = system: LXFL 529
M19-MEL = system: M19-MEL
RXF 631 = system: RXF 631
HOP-18 = system: HOP-18
SNB-78 = system: SNB-78
XF498 = system: XF498

SMILES | GI50 (Hs-578T) | GI50 (DMS-114) | GI50 (KM-20L2) | GI50 (LXFL 529) | GI50 (M19-MEL) | other results
O=C(O)c1ccc2[nH]c(=O)oc2c1 | > 100 µM (inactive) | – | – | – | – | –
C=CCC(CNC(=O)OCc1ccccc1)O[Si](C)(C)C(C)(C)C (stereo unspecified) | 45.2 µM (inactive) | – | – | – | – | –
CSc1nc(=S)[nH]c2[nH]nc(C)c12 | > 100 µM (inactive) | – | – | – | – | –
Cc1cc(=O)oc2cc(OCc3c(F)cccc3Cl)ccc12 | 21.9 µM (inactive) | – | – | – | – | –
COc1cccc(/N=N/C(=N/NC(=O)c2ccc(C)cc2)c2ccc(N(CCC#N)CCC#N)cc2OC)c1 | > 100 µM (inactive) | – | – | – | – | –
CC1(C)CC(O)C2=C(O1)C(=O)c1ncccc1C2=O (stereo unspecified) | 2.7 µM (inactive) | – | – | – | – | –
CS(=O)(=O)NNS(=O)(=O)c1ccc(F)cc1 | – | > 100 µM (inactive) | > 100 µM (inactive) | > 100 µM (inactive) | > 100 µM (inactive) | GI50 (RXF 631): > 100 µM (inactive)
COc1ccc(C2SCC(=O)N2NC(=O)C(C)Oc2ccccc2Cl)cc1 (stereo unspecified) | > 100 µM (inactive) | – | – | – | – | –
Cc1cccc(N2C(=O)C(Cl)=C(Cl)C2=O)c1 | – | > 67.5 µM (inactive) | > 100 µM (inactive) | > 41.6 µM (inactive) | > 91.2 µM (inactive) | GI50 (HOP-18): > 73.6 µM (inactive); GI50 (SNB-78): > 100 µM (inactive); GI50 (XF498): 0.661 µM (active)
N#CCCN(c1ccc(/C=N/c2nc(-c3ccccc3)cs2)cc1)S(=O)(=O)c1ccccc1 | – | 39.4 µM (inactive) | > 100 µM (inactive) | 56.9 µM (inactive) | > 100 µM (inactive) | GI50 (SNB-78): > 100 µM (inactive); GI50 (XF498): > 100 µM (inactive)
CCOc1cc2c(C(=O)CC)c(O)ccc2o1 | – | > 54.5 µM (inactive) | > 100 µM (inactive) | 64.9 µM (inactive) | 31.1 µM (inactive) | GI50 (SNB-78): > 96.6 µM (inactive); GI50 (XF498): > 49.9 µM (inactive)
C/C=C/C1OC(O)(C(C)C(O)[C@H](C)C2OC(=O)/C(OC)=C/C(C)=C/[C@@H](C)[C@@H](O)[C@@H](C)C(O)C(C)C/C(C)=C/C=C/C2OC)C[C@@H](OC2CC(O)C(OC(N)=O)C(C)O2)C1C (stereo partly specified) | 0.889 µM (active) | – | – | – | – | –
O=C1C=C2CCC[C@H]3OC(=O)C[C@@]23CC1 | > 100 µM (inactive) | – | – | – | – | –
COc1ccc(OC)c(NC(=O)C2=C(C)NC(C)=C(C(=O)Nc3cc(OC)ccc3OC)C2c2ccccc2)c1 | – | 96.2 µM (inactive) | 86.5 µM (inactive) | > 100 µM (inactive) | > 100 µM (inactive) | GI50 (HOP-18): 1.04 µM (active); GI50 (SNB-78): > 100 µM (inactive)
Cn1c2ccc(Cl)cc2c2ccc3c(c21)C(=O)C=CC3=O | > 10 µM (inactive) | – | – | – | – | –
O=C1C=CC(=O)c2c(O)ccc(O)c21 [NAPHTHAZALIN] | 2.17 µM (inactive) | 1.8 µM (inactive) | 1.84 µM (inactive) | 0.535 µM (active) | 0.491 µM (active) | GI50 (HOP-18): 1.16 µM (inactive); GI50 (SNB-78): 2.25 µM (inactive); GI50 (XF498): 1.58 µM (inactive)
O=C1c2ccccc2C(=O)c2c(NCCNC(=O)C3CCCN3)ccc(NCCNC(=O)C3CCCN3)c21 (stereo unspecified) | 37.1 µM (inactive) | – | – | – | – | –
COc1cc(C=C2N=C(c3ccccc3)N(n3c(-c4ccccc4)nc4ccccc4c3=O)C2=O)cc(OC)c1OC | 15.8 µM (inactive) | – | – | – | – | –
CCCc1nc(Cl)c(Cl)c(Cl)n1 | 14.6 µM (inactive) | – | – | – | – | –
CCC(=O)Nc1ncnc2ncn(C(=O)CC)c12 | > 100 µM (inactive) | – | – | – | – | –
C=C1C(=O)O[C@@H]2C=C(C)C3=CC(=O)[C@](C)(C[C@H](OC(=O)/C(C)=C\C)[C@@H]12)O3 | 2.85 µM (inactive) | – | – | – | – | –
O=C(CC(=O)c1ccccc1)C(=O)NC12CC3CC(CC(C3)C1)C2 | – | > 42.4 µM (inactive) | > 75.7 µM (inactive) | > 100 µM (inactive) | > 100 µM (inactive) | GI50 (HOP-18): > 100 µM (inactive); GI50 (SNB-78): > 100 µM (inactive); GI50 (XF498): > 100 µM (inactive)
COc1cc2cnc3c4cc(O)ccc4ccc3c2cc1OC | – | 6.3 µM (inactive) | > 100 µM (inactive) | 6.08 µM (inactive) | 24.7 µM (inactive) | GI50 (HOP-18): 34.8 µM (inactive)
NC(C(F)(F)F)(C(F)(F)F)P(=O)(Cc1ccccc1)Cc1ccccc1 | 58.1 µM (inactive) | – | – | – | – | –
CC1(C)OCN(c2ccc(Cl)cc2)Cn2c1nc1ccccc12 | – | 21.2 µM (inactive) | 1.82 µM (inactive) | 1.31 µM (inactive) | 71 µM (inactive) | GI50 (HOP-18): > 100 µM (inactive); GI50 (SNB-78): > 100 µM (inactive); GI50 (XF498): 82.4 µM (inactive)
O=C1CC(C2(O)C(=O)Nc3ccc([N+](=O)[O-])cc32)c2ccccc21 (stereo unspecified) | – | 9.48 µM (inactive) | – | 16.3 µM (inactive) | 29.2 µM (inactive) | GI50 (HOP-18): 28.1 µM (inactive); GI50 (RXF 631): 16.4 µM (inactive); GI50 (SNB-78): 31.6 µM (inactive)
CC(=N\N)/C(C)=N/N=C(C)/C(C)=N/N=C(C)/C(C)=N/N | > 100 µM (inactive) | – | – | – | – | –
CCOC(=O)Cn1c(=O)c2nc(SC)sc2n(-c2ccc(C)cc2)c1=S | 19.2 µM (inactive) | – | – | – | – | –
